Results taken from patent US20230151049A1, “Compounds Useful in HIV Therapy” (priority 2020, published 2023).
Read-outs that look alike come from different tables or passages of the source.

Assay: in vivo
Details: for concentration at 1 day / concentration at 7 day / concentration at 14 day / concentration at 21 day / concentration at 28 day / concentration at 35 day / concentration at 42 day / concentration at 49 day / concentration at 56 day / concentration at 63 day / concentration at 70 day / concentration at 77 day / concentration at 84 day: male, Wistar Han, rat, in vivo
Summary of the method: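 Three male Wistar Han rats (200-250 g), not fasted, received a single intramuscular gastrocnemius injection of prodrug suspension at 20 mg/kg EFdA equivalent. Tail-vein blood was taken into NaF/Na2EDTA, mixed 1:1 with 100 mM ammonium acetate pH 4, frozen, and analysed by LC-MS/MS.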

C#C[C@]1(COP(=O)(N[C@@H](Cc2cc(F)cc(F)c2)C(=O)OCCCCCCCCCCCCCCCCCC)Oc2ccccc2)O[C@@H](n2cnc3c(N)nc(F)nc32)C[C@@H]1O (single isomer, unassigned) [Example 40A]
Mean concentration of EFdA (day 14, single IM Example 40A 60 mg/kg): BQL (BQL = below quantification limit, 0.3 ng/ml for both)
Mean concentration of EFdA (day 21, single IM Example 40A 60 mg/kg): BQL (BQL = below quantification limit, 0.3 ng/ml for both)
Mean concentration of EFdA (day 28, single IM Example 40A 60 mg/kg): BQL (BQL = below quantification limit, 0.3 ng/ml for both)
Mean concentration of EFdA (day 35, single IM Example 40A 60 mg/kg): BQL (BQL = below quantification limit, 0.3 ng/ml for both)
Mean concentration of EFdA (day 42, single IM Example 40A 60 mg/kg): BQL (BQL = below quantification limit, 0.3 ng/ml for both)
Mean concentration of EFdA (day 49, single IM Example 40A 60 mg/kg): BQL (BQL = below quantification limit, 0.3 ng/ml for both)
Mean concentration of EFdA (day 56, single IM Example 40A 60 mg/kg): BQL (BQL = below quantification limit, 0.3 ng/ml for both)
Mean concentration of EFdA (day 63, single IM Example 40A 60 mg/kg): BQL (BQL = below quantification limit, 0.3 ng/ml for both)
Mean concentration of EFdA (day 70, single IM Example 40A 60 mg/kg): BQL (BQL = below quantification limit, 0.3 ng/ml for both)
Mean concentration of EFdA (day 77, single IM Example 40A 60 mg/kg): BQL (BQL = below quantification limit, 0.3 ng/ml for both)
Mean concentration of EFdA (day 84, single IM Example 40A 60 mg/kg): BQL (BQL = below quantification limit, 0.3 ng/ml for both)
concentration at 1 day (day 1, single IM Example 40A 60 mg/kg, read-out: Mean concentration of Example 40A): 59.2 ng/mL
concentration at 7 day (day 7, single IM Example 40A 60 mg/kg, read-out: Mean concentration of Example 40A): 22.4 ng/mL
concentration at 14 day (day 14, single IM Example 40A 60 mg/kg, read-out: Mean concentration of Example 40A): 11.2 ng/mL
concentration at 21 day (day 21, single IM Example 40A 60 mg/kg, read-out: Mean concentration of Example 40A): 11.2 ng/mL
concentration at 28 day (day 28, single IM Example 40A 60 mg/kg, read-out: Mean concentration of Example 40A): 12.7 ng/mL
concentration at 35 day (day 35, single IM Example 40A 60 mg/kg, read-out: Mean concentration of Example 40A): 12.6 ng/mL
concentration at 42 day (day 42, single IM Example 40A 60 mg/kg, read-out: Mean concentration of Example 40A): 13.2 ng/mL
concentration at 49 day (day 49, single IM Example 40A 60 mg/kg, read-out: Mean concentration of Example 40A): 11.7 ng/mL
concentration at 56 day (day 56, single IM Example 40A 60 mg/kg, read-out: Mean concentration of Example 40A): 14.7 ng/mL
concentration at 63 day (day 63, single IM Example 40A 60 mg/kg, read-out: Mean concentration of Example 40A): 13 ng/mL
concentration at 70 day (day 70, single IM Example 40A 60 mg/kg, read-out: Mean concentration of Example 40A): 12.2 ng/mL
concentration at 77 day (day 77, single IM Example 40A 60 mg/kg, read-out: Mean concentration of Example 40A): 11.7 ng/mL
concentration at 84 day (day 84, single IM Example 40A 60 mg/kg, read-out: Mean concentration of Example 40A): 10.3 ng/mL

C#C[C@]1(COP(=O)(N[C@@H](Cc2cc(F)cc(F)c2)C(=O)OCCCCCCCCCCCCCCCCCCCCCC)Oc2ccccc2)O[C@@H](n2cnc3c(N)nc(F)nc32)C[C@@H]1O (single isomer, unassigned) [Example 42B]
Mean concentration of EFdA (day 7, single IM Example 42B 64 mg/kg): BQL (BQL = below quantification limit, 0.3 ng/mL for both)
Mean concentration of EFdA (day 14, single IM Example 42B 64 mg/kg): BQL (BQL = below quantification limit, 0.3 ng/mL for both)
Mean concentration of EFdA (day 21, single IM Example 42B 64 mg/kg): BQL (BQL = below quantification limit, 0.3 ng/mL for both)
Mean concentration of EFdA (day 28, single IM Example 42B 64 mg/kg): BQL (BQL = below quantification limit, 0.3 ng/mL for both)
Mean concentration of EFdA (day 35, single IM Example 42B 64 mg/kg): BQL (BQL = below quantification limit, 0.3 ng/mL for both)
Mean concentration of EFdA (day 42, single IM Example 42B 64 mg/kg): BQL (BQL = below quantification limit, 0.3 ng/mL for both)
Mean concentration of EFdA (day 49, single IM Example 42B 64 mg/kg): BQL (BQL = below quantification limit, 0.3 ng/mL for both)
Mean concentration of EFdA (day 56, single IM Example 42B 64 mg/kg): BQL (BQL = below quantification limit, 0.3 ng/mL for both)
Mean concentration of EFdA (day 63, single IM Example 42B 64 mg/kg): BQL (BQL = below quantification limit, 0.3 ng/mL for both)
Mean concentration of EFdA (day 70, single IM Example 42B 64 mg/kg): BQL (BQL = below quantification limit, 0.3 ng/mL for both)
Mean concentration of EFdA (day 77, single IM Example 42B 64 mg/kg): BQL (BQL = below quantification limit, 0.3 ng/mL for both)
Mean concentration of EFdA (day 84, single IM Example 42B 64 mg/kg): BQL (BQL = below quantification limit, 0.3 ng/mL for both)

C#C[C@]1(COP(=O)(N[C@@H](Cc2ccccc2)C(=O)OCCCCCCCCCCCCCCCCCCCC)Oc2ccccc2)O[C@@H](n2cnc3c(N)nc(F)nc32)C[C@@H]1O (single isomer, unassigned) [Example 43A]
Mean concentration of EFdA (day 1, single IM Example 43A 60 mg/kg): BQL (BQL = below quantification limit, 0.3 ng/mL for both)
Mean concentration of EFdA (day 7, single IM Example 43A 60 mg/kg): BQL (BQL = below quantification limit, 0.3 ng/mL for both)
Mean concentration of EFdA (day 14, single IM Example 43A 60 mg/kg): BQL (BQL = below quantification limit, 0.3 ng/mL for both)
Mean concentration of EFdA (day 21, single IM Example 43A 60 mg/kg): BQL (BQL = below quantification limit, 0.3 ng/mL for both)
Mean concentration of EFdA (day 28, single IM Example 43A 60 mg/kg): BQL (BQL = below quantification limit, 0.3 ng/mL for both)
Mean concentration of EFdA (day 35, single IM Example 43A 60 mg/kg): BQL (BQL = below quantification limit, 0.3 ng/mL for both)
Mean concentration of EFdA (day 42, single IM Example 43A 60 mg/kg): BQL (BQL = below quantification limit, 0.3 ng/mL for both)
Mean concentration of EFdA (day 49, single IM Example 43A 60 mg/kg): BQL (BQL = below quantification limit, 0.3 ng/mL for both)
Mean concentration of EFdA (day 56, single IM Example 43A 60 mg/kg): BQL (BQL = below quantification limit, 0.3 ng/mL for both)
Mean concentration of EFdA (day 63, single IM Example 43A 60 mg/kg): BQL (BQL = below quantification limit, 0.3 ng/mL for both)
Mean concentration of EFdA (day 70, single IM Example 43A 60 mg/kg): BQL (BQL = below quantification limit, 0.3 ng/mL for both)
Mean concentration of EFdA (day 77, single IM Example 43A 60 mg/kg): BQL (BQL = below quantification limit, 0.3 ng/mL for both)
Mean concentration of EFdA (day 84, single IM Example 43A 60 mg/kg): BQL (BQL = below quantification limit, 0.3 ng/mL for both)
concentration at 1 day (day 1, single IM Example 43A 60 mg/kg, read-out: Mean concentration of Example 43A): 89.3 ng/mL
concentration at 7 day (day 7, single IM Example 43A 60 mg/kg, read-out: Mean concentration of Example 43A): 25.4 ng/mL
concentration at 14 day (day 14, single IM Example 43A 60 mg/kg, read-out: Mean concentration of Example 43A): 22.7 ng/mL
concentration at 21 day (day 21, single IM Example 43A 60 mg/kg, read-out: Mean concentration of Example 43A): 22.1 ng/mL
concentration at 28 day (day 28, single IM Example 43A 60 mg/kg, read-out: Mean concentration of Example 43A): 11.3 ng/mL
concentration at 35 day (day 35, single IM Example 43A 60 mg/kg, read-out: Mean concentration of Example 43A): 12.7 ng/mL
concentration at 42 day (day 42, single IM Example 43A 60 mg/kg, read-out: Mean concentration of Example 43A): 10.4 ng/mL
concentration at 49 day (day 49, single IM Example 43A 60 mg/kg, read-out: Mean concentration of Example 43A): 7.22 ng/mL
concentration at 56 day (day 56, single IM Example 43A 60 mg/kg, read-out: Mean concentration of Example 43A): 8.67 ng/mL
concentration at 63 day (day 63, single IM Example 43A 60 mg/kg, read-out: Mean concentration of Example 43A): 12.5 ng/mL
concentration at 70 day (day 70, single IM Example 43A 60 mg/kg, read-out: Mean concentration of Example 43A): 13.1 ng/mL
concentration at 77 day (day 77, single IM Example 43A 60 mg/kg, read-out: Mean concentration of Example 43A): 13.5 ng/mL
concentration at 84 day (day 84, single IM Example 43A 60 mg/kg, read-out: Mean concentration of Example 43A): 7.94 ng/mL
